The values below come from PubChem BioAssay (NCI).

Common to all, as to experiment: NCI anticancer screen, dose series, 48 h
Test [1] relates to A549 NSCLC.
Test [2] relates to HCT-116 colon.
The subject of test [3] is LOX IMVI melanoma.
The subject of test [4] is M14 melanoma.
Test [5] has as its system OVCAR-3 ovarian.
The subject of test [6] is RPMI-8226 leukemia.
Test [7] relates to SF-295 CNS.
Test [8] concerns SK-OV-3 ovarian.
For test [9], the system named is SN12C renal.
Test [10] deals with UACC-62 melanoma.

Each structure is given as a SMILES string. Where “and” joins values, the source holds several entries; their conditions need not be identical. Identical values can stand only once.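 These data come from cells grown in 96-well plates and exposed to compound for 48 hours at five concentrations. Here, GI50 denotes the concentration required for 50% inhibition of growth. TGI denotes the concentration required for complete inhibition of growth.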

With `CCN(CC)c1ccc(/C=C/C2=[N+](C)c3ccccc3C2(C)C)cc1`, the GI50 was 0.518 µM in test [1]; 0.181 µM in [2]; 0.251 µM in [3]; 0.581 µM in test [4]; 0.281 µM in test [5]; 0.0557 µM in test [6]. The GI50 in test [7] was 0.374 µM; in test [8], 0.275 µM; in [9], 0.342 µM; in test [10] it was 0.435 µM. The TGI in test [1] was over 100 µM; in test [2], 22.1 µM; in test [3], 23 µM; in test [4] it was 19.5 µM; in test [5], 13.2 µM; in [6], over 61.6 µM. In addition, the TGI was 22.2 µM in test [7], 2.79 µM in test [8], 13.8 µM in test [9] and 14.9 µM in [10].
As for `CN(C)CC1CCCC(CN(C)C)C1=O` (stereo not drawn), the TGI in test [1] is 48.1 µM and > 63.6 µM; in test [2] it was 3.64 µM and 7.98 µM; in [3], 7.09 µM and 30.3 µM; in test [4] it was 3.03 µM and 11.7 µM; in test [5], 5.47 µM and 3.64 µM; in test [6], 1.53 µM and 2.36 µM. Also, the TGI in test [7] is 35.7 µM and > 100 µM; in test [8], 31.8 µM and > 58.3 µM; in test [9] it was 5.78 µM and 18.4 µM; in [10], 18.3 µM and 33.4 µM. In addition, the GI50 in [2] is 1.66 µM and 3.36 µM; in test [3], 3.4 µM and 8.45 µM; in [4], 1.48 µM and 6.11 µM; in test [6], 0.125 µM and 0.458 µM; in test [7], 19.3 µM and > 100 µM; in [8], 17.8 µM and > 44 µM. The GI50 was 2.58 µM and 7.36 µM in test [9]; 8.32 µM and 18 µM in [10].
`CCN=C(N)CSS(=O)(=O)O`: the TGI in [1], in test [2], in test [3], in test [4], in [5] and in [6] was over 100 µM each time. For the same compound, the TGI in test [7], in test [8], in test [9] and in test [10] was over 100 µM in each case.
Consider `O=C(/C=C/c1cccnc1)/C=C/c1cccnc1`, for which the GI50 in test [1] is 2.32 µM; in test [2], 0.164 µM; in test [3], 1.13 µM; in [4], 1.84 µM; in [5], 1.07 µM; in test [6], 0.0732 µM. For the same compound, the GI50 in [7] is 3.73 µM; in test [8] it was 2.74 µM; in test [9], 2.99 µM; in [10] it was 1.91 µM. Moreover, the TGI is 6.23 µM in test [1]; 0.321 µM in test [2]; 2.42 µM in test [3]; 4.62 µM in [4]; 2.33 µM in test [5]; 0.252 µM in test [6]. Besides, the TGI in test [7] came to 13.1 µM; in [8], 6.78 µM; in test [9], 12.7 µM; in [10], 5.36 µM.
On to `COc1cc(-c2cn(-c3ccc(Cl)cc3)c(=O)n2-c2ccccc2)cc(OC)c1OC`, for which the GI50 in test [1] is over 46.6 µM; in test [2] it was 45.8 µM; in test [3] it was 46.2 µM; in test [4], over 100 µM; in test [5], over 100 µM; in test [6] it was over 35.4 µM. The GI50 was 55.7 µM in [7], 74.9 µM in [8], over 100 µM in [9] and 32.5 µM in test [10]. Moreover, the TGI in [1], in [2], in test [3], in test [4], in [5] and in [6] was over 100 µM each time. The TGI in test [7], in test [8], in test [9] and in test [10] was over 100 µM throughout.
Consider `CCN1C(=O)N(CC)C2C1NN=c1s/c(=C\c3ccc([N+](=O)[O-])cc3)c(=O)n12` (stereo not drawn), for which the GI50 in [1] was 0.681 µM; in test [2], 0.427 µM; in test [3], 0.507 µM; in [4] it was 0.401 µM; in test [5], 0.283 µM; in test [6], 0.449 µM. The GI50 in [7] was 0.371 µM; in test [8], 0.698 µM; in test [9], 0.677 µM; in [10], 0.5 µM. The TGI in [1] is over 100 µM; in test [2], over 100 µM; in test [3], over 100 µM; in [4], over 43 µM; in test [5], 0.842 µM; in [6], over 38.9 µM. Further, the TGI was over 52.2 µM in test [7], 49.5 µM in [8], over 64.4 µM in test [9] and over 100 µM in test [10].
For the compound `COC(=O)C1(C)CCc2c(ccc3ccccc23)C1=O` (stereo not drawn), the TGI is over 100 µM in test [1]; over 100 µM in [2]; over 100 µM in test [3]; 83.8 µM in test [4]; over 100 µM in [5]; 60.6 µM in test [6]. In addition, the TGI is over 100 µM in [7], over 100 µM in test [8], over 100 µM in test [9] and 98.1 µM in [10].
